A short description of this data set: Solubility at room temperature in xylene / toluene. The format is physicochemical.

Structures are written as SMILES.

Regarding `CC(C)(C)c1cc(CCC(=O)OCC(COC(=O)CCc2cc(-n3nc4ccc(Cl)cc4n3)c(O)c(C(C)(C)C)c2)(COC(=O)CCc2cc(-n3nc4ccc(Cl)cc4n3)c(O)c(C(C)(C)C)c2)COC(=O)CCc2cc(-n3nc4ccc(Cl)cc4n3)c(O)c(C(C)(C)C)c2)cc(-n2nc3ccc(Cl)cc3n2)c1O` [Example C3], the soluble in xylene entry is listed as “less than 1%”. In addition, the “Solubility at room temperature [g] xylene” value (room temperature) is 2 g.

These data come from patent publication US20250289790A1, “UV LIGHT STABILIZERS” (BASF SE, priority 2022, published 2025).
